Data reported in patent publication US20080194922A1, “POTENTIATION FOR MEDICAL THERAPIES” (priority 2005, published 2008).

Assays:
[1] = system: multiple myeloma in a cat; assay: Narrow therapeutic band established by potentiating the therapy of multiple myeloma in a cat
[2] = system: cat with multiple myeloma; assay: System Functions (linear regression of dexamethasone dose versus food intake) and test of dexamethasone regimens, cat myeloma model; type: in vivo
Source text: Based on the foregoing analysis, 3 different dexamethasone regimens where designed and hypothesized systems functions were formulated for predicting the impact of a regimen on food intake. […] In general, the system functions are in the form of:
Predicted Food Intake Dayn (tsp)=(dexamethasone dose Dayn) (mg)×Factor Dayn (tsp/mg);
Predicted Food Intake Dayn+1 (tsp)=[(dexamethasone dose Dayn+1) (mg)×Factor Dayn+1 (tsp/mg)]+Predicted Food Intake Dayn;
Predicted Food Intake Dayn+2 (tsp)=[(dexamethasone dose Dayn+2) (mg)×Factor Dayn+2 (tsp/mg)]+Predicted Food Intake Dayn+1;
wherein “Dayn” is the first day of a three to six day dosing cycle and, if the dexamethasone dose is 0.00, this value is converted to 1.00. “Factor Dayn” is regimen specific and was determined by linear regression analysis of the correlation between dexamethasone dose and food intake performed separately for days 1, 2, and 3 of the cycle a given regimen. For example, all first day dexamethasone administrations were identified in the past data. Food intake for those days were compared to the food intake the day before and averaged, then divided by the dose of dexamethasone for each first day (((Food Intake Dayn (tsp)−Dayn−1 (tsp))/number of first days)/dexamethasone Dayn).
The system functions were used to predict the results with three dexarnethasone regimens. Regimen 1 employs a dosing schedule of 0.250 mg dexamethasone 2 days on and then 1 day off.

[3] = system: cat with multiple myeloma; assay: Delta Correlation Function analysis of dexamethasone dose versus food intake, cat myeloma model; type: in vivo; details: for normalized DCF, food intake versus dexamethasone dose: 1 day off
Source text: The inventive method was used to analyze changes from day to day. The data was digitized by substituting either +1 for positive change (dayn+i greater than dayn), 0 (zero) for no change, and −1 for negative change (dayn+i less than dayn). Digitizing the change magnifies small changes by giving small differences the same value as large differences. For example, a positive change is noted as +1 whether the change is 1 milligram or 10 grams.
The inventive method multiplied a digitized change in therapy element by the corresponding digitized change in correlation factor to produce a correlation product. Because the digitized changes are signed (+ or −), changes in the same direction (both positive or both negative) produce a positive product. Changes in opposite directions (one negative and one positive) produce a negative product. The inventive method then provided a rolling average of correlation products over fixed period of time. (A positive average indicates a positive correlation between dose and result.)
There is a phase or timing relationship that should be considered. FIG. 15, drawn to the same scale as FIG. 14, illustrates an eighteen day rolling average of correlation product with a one day offset for the change in food intake. That is, the food intake on dayn+i minus the food intake on dayn is multiplied by the dose on dayn minus the dose on dayn—i. In FIGS. 12-14, the product is the food intake on dayn minus the food intake on dayn—i multiplied by the dose on dayn minus the dose on dayn—i.
Because of the delayed effect of some therapies, the invention provides for an “offset,” or staggering, of the corresponding therapy elements and correlation factors that are multiplied to obtain the normalized Delta Correlation Function (DCF).
A method provided by the invention was used to optimize the dexamethasone regimen based on the correlation factor food intake (i.e., determined the dexamethasome regimen that produces an increase in food intake.) Again, the cat myeloma model was used. […] The normalized DCF was calculated based upon a 24 time point sample (Days 445 to 469) with various offsets.

[4] = thalidomide 1.6 mg, in combination with the other elements of the potentiating protocol

C[C@@H]1C[C@H]2[C@@H]3CCC4=CC(=O)C=C[C@]4(C)[C@@]3(F)[C@@H](O)C[C@]2(C)[C@@]1(O)C(=O)CO [dexamethasone]
side effects at minimum dose ([1]; dexamethasone 0.125 mg (modulated 2 days on, 1 day off), in combination with the other elements of the protocol): without significant side effects
adverse side effects above end point of narrow band ([1]; dexamethasone doses above 0.162 mg, such as thromboses and peripheral neuropathy): increased
Factor Dayn of System Function (food intake per dexamethasone dose) ([2]; Regimen 1 (0.250 mg 2 days on, 1 day off), Dayn): −5.11 tsp/mg
Factor Dayn+1 of System Function ([2]; Regimen 1, Dayn+1): 8.57 tsp/mg
Factor Dayn+2 of System Function ([2]; Regimen 1, Dayn+2 (day off, dose 0.00 converted to 1.00)): 2.23 tsp/mg
food intake reached ([2]; Regimen 1: 0.250 mg dexamethasone 2 days on, 1 day off, physiologic limit): 15.5 tsp per day
Factor Dayn of System Function ([2]; Regimen 2 (0.250 mg 2 days on, then 1 day at 0.125 mg), Dayn): −5.11 tsp/mg
Factor Dayn+1 of System Function ([2]; Regimen 2, Dayn+1): 8.57 tsp/mg
Factor Dayn+2 of System Function ([2]; Regimen 2, Dayn+2 (0.125 mg)): −0.53 tsp/mg
Factor Dayn of System Function ([2]; Regimen 3 (0.125 mg every day, six day cycle), Dayn): −5.11 tsp/mg
Factor Dayn+1 of System Function ([2]; Regimen 3, Dayn+1): 8.57 tsp/mg
Factor Dayn+2 of System Function ([2]; Regimen 3, Dayn+2): −0.53 tsp/mg
Factor Dayn+3 of System Function ([2]; Regimen 3, Dayn+3): −0.10 tsp/mg
Factor Dayn+4 of System Function ([2]; Regimen 3, Dayn+4): 3.89 tsp/mg
Factor Dayn+5 of System Function ([2]; Regimen 3, Dayn+5): −1.72 tsp/mg
normalized DCF, food intake versus dexamethasone dose ([3]; 0.175 mg/day, 2 days on, Days 445 to 469 (24 time points), same day basis (no offset)): −0.16
normalized DCF, food intake versus dexamethasone dose ([3]; 0.175 mg/day, 2 days on, Days 445 to 469, 2 day offset): +0.37
normalized DCF, food intake versus dexamethasone dose ([3]; 0.175 mg/day, 2 days on, Days 445 to 469, 3 day offset): −0.09
normalized DCF, food intake versus dexamethasone dose ([3]; 0.175 mg/day, 2 days on, Days 445 to 469, food intake offset by 1 day): −0.21
time required for the dexamethasone therapeutic effect to develop ([3]; 0.375 mg, 1 day on, 1 day off regimen): approximately 1 day
normalized DCF, food intake versus dexamethasone dose ([3]; 0.375 mg, 1 day on, Days 37 to 61, 1 day offset): +0.5
normalized DCF, food intake versus dexamethasone dose ([3]; 0.375 mg, 1 day on, Days 37 to 61, same day): −0.52

O=C1CCC(N2C(=O)c3ccccc3C2=O)C(=O)N1 (centres unmarked) [thalidomide]
side effects at minimum dose [1, 4]: without significant thalidomide side effects or resistance
therapeutic effect at minimum dose [1, 4]: controlled the disease
therapeutic effect above end point of narrow band ([1]; thalidomide doses above 1.8 mg): not increased
adverse side effects above end point of narrow band ([1]; thalidomide doses above 1.8 mg, such as peripheral neuropathy): increased
